# Measured values published in patent publication US8765695B2, “Use of ginsenoside RG1, its metabolites ginsenoside RH1 and/or PPT” (priority 2007, dated 2014).
# Marks after values point to notes of the source that are not given here.
# What was measured:
# male mice = assay: Test of sexual ethology: bestriding time and mating frequency of male mice with estral female mice; type: in vivo, Kunming mice
# Method: Kunming male mice (age 10 weeks, weight body 32-36 g), Kunming female mice (age 10 weeks, weight body 30-34 g), as purchased from Laboratory Animal Center of Chinese Academy of Medical Sciences (with the number of certificate SCXK (Jing) 2005-0004), were placed in a clean grade animal house alternately in light and in darkness (12 h:12 h), while taking water and food freely. The test started after the mice had adapted to the environment in the animal house for 5 days. During the period of adapting to the environment, male mice and female mice were isolated from each other.
# In order to correctly reflect the change of male mice in sexual function, we prepared estral female mice by ectomizing their ovaries and inducing them by application of external hormone. After anesthetized with chloral hydrate, female mice were subjected to the steps of ectomizing bilateral ovaries by dorsal approach, ligating uterine tube residue end, and suturing skin, followed by recuperating for one week. The induction by application of hormone was conducted by reference to the literature (Masayoshi Nomura, et al, Physiology & Behavior 91 (2007) 223-228), comprising the steps of subcutaneously injecting estradiol benzoate (30 μg per mouse, is) at 48 h prior to use, and subcutaneously injecting progesterone (500 μg per mouse, is) at 4 h prior to use, to thereby obtain estral female mice.
# Estral female mice were put in a ratio of 2:1 to male mice inside a mating box in which male mice were placed. They were trained for consecutive 5 days, 12 min each day. When the mating reaction of male mice became stable, the mice were grouped with the consideration that the bestriding time in each group of mice was substantially the same, while discarding the mice that had relatively weak reaction and no reaction.
# In darkness, ethological test was carried out in the rearing cage of male mice. Estral female mice and male mice were kept in a ratio of 2:1 inside the same box for 12 min, during which period the bestriding time and mating frequency of the male mice were observed.
# All of the values were expressed by using mean value and standard error (M±SEM), the analytic method used was one-way analysis of variance (ANOVA), and the statistic results were expressed by double star method, i.e., *<0.05, **<0.01.
# [1] = test system: sperms in tail of epididymis; assay: Gossypol aspermatogenesis model: quality of sperms from tail of epididymis by CASA; type: in vivo,  male mice; details: 14th day
# PDE5 = PDE5 (Homo sapiens, UniProt O76074); assay: Inhibition effect on PDE5 (cGMP degradation, radioimmune autograph technique); type: biochemical; details: read-out: Inhibition rate on PDE5
# [2] = 5 mg/kg, 1st day, 12 min observation
# [3] = 10 mg/kg, 1st day, 12 min observation
# [4] = 5 mg/kg every day + gossypol 50 mg/kg every other day
# [5] = 10 mg/kg every day + gossypol 50 mg/kg every other day
smiles,measurement,setting,value
CC(C)=CCC[C@](C)(O)[C@H]1CC[C@]2(C)[C@@H]1[C@H](O)C[C@@H]1[C@@]3(C)CC[C@H](O)C(C)(C)[C@@H]3[C@@H](O)C[C@]12C [Ppt],bestriding time of mice,"male mice; 5 mg/kg, 1st day",3.3 ± 2.3 min
same,mating frequency of mice,male mice; [2],11.4 ± 6.8
same,bestriding time of mice,"male mice; 5 mg/kg, 4th day",3.9 ± 4.2 min
same,mating frequency of mice,"male mice; 5 mg/kg, 4th day",15.4 ± 8.2
same,bestriding time of mice,"male mice; 5 mg/kg, 8th day",4.5 ± 3.8 min
same,mating frequency of mice,"male mice; 5 mg/kg, 8th day",27.4 ± 8.7
same,bestriding time of mice,"male mice; 5 mg/kg, 12th day",6.8 ± 3.3 min
same,mating frequency of mice,"male mice; 5 mg/kg, 12th day",28.2 ± 9.3
same,bestriding time of mice,"male mice; 5 mg/kg, 14th day",7.9 ± 4.4 min
same,mating frequency of mice,"male mice; 5 mg/kg, 14th day",29.5 ± 7.7
same,bestriding time of mice,"male mice; 5 mg/kg, 16th day",8.3 ± 3.1* min
same,mating frequency of mice,"male mice; 5 mg/kg, 16th day",33.5 ± 10.4
same,bestriding time of mice,"male mice; 5 mg/kg, 18th day",9.2 ± 3.8* min
same,mating frequency of mice,"male mice; 5 mg/kg, 18th day",39.2 ± 8.6*
same,bestriding time of mice,"male mice; 5 mg/kg, 20th day",9.1 ± 3.5* min
same,mating frequency of mice,"male mice; 5 mg/kg, 20th day",41.7 ± 7.4*
same,bestriding time of mice,"male mice; 10 mg/kg, 1st day",2.9 ± 3.4 min
same,mating frequency of mice,male mice; [3],13.4 ± 6.3
same,bestriding time of mice,"male mice; 10 mg/kg, 4th day",3.3 ± 4.1 min
same,mating frequency of mice,"male mice; 10 mg/kg, 4th day",15.4 ± 8.4
same,bestriding time of mice,"male mice; 10 mg/kg, 8th day",5.1 ± 3.8 min
same,mating frequency of mice,"male mice; 10 mg/kg, 8th day",22.8 ± 9.6
same,bestriding time of mice,"male mice; 10 mg/kg, 12th day",7.2 ± 3.3 min
same,mating frequency of mice,"male mice; 10 mg/kg, 12th day",31.6 ± 8.4
same,bestriding time of mice,"male mice; 10 mg/kg, 14th day",8.4 ± 4.2 min
same,mating frequency of mice,"male mice; 10 mg/kg, 14th day",33.7 ± 8.5
same,bestriding time of mice,"male mice; 10 mg/kg, 16th day",9.4 ± 3.9* min
same,mating frequency of mice,"male mice; 10 mg/kg, 16th day",35.3 ± 9.3
same,bestriding time of mice,"male mice; 10 mg/kg, 18th day",9.4 ± 3.9* min
same,mating frequency of mice,"male mice; 10 mg/kg, 18th day",37.2 ± 8.3*
same,bestriding time of mice,"male mice; 10 mg/kg, 20th day",9.4 ± 3.1* min
same,mating frequency of mice,"male mice; 10 mg/kg, 20th day",40.2 ± 7.3*
same,Number of sperms,[1]; [4],141 ± 18** 10^6 · ml−1
same,Motility of sperms (A + B),[1]; 5 mg/kg every day + gossypol,38 ± 11 %
same,Viability rate of sperms,[1]; 5 mg/kg every day + gossypol,55 ± 9 %
same,Number of sperms,[1]; [5],178 ± 54** 10^6 · ml−1
same,Motility of sperms (A + B),[1]; 10 mg/kg every day + gossypol,39 ± 9 %
same,Viability rate of sperms,[1]; 10 mg/kg every day + gossypol,56 ± 7 %
"CC(C)=CCC[C@](C)(O)[C@H]1CC[C@]2(C)[C@@H]1[C@H](O)C[C@@H]1[C@@]3(C)CC[C@H](O)C(C)(C)[C@@H]3[C@@H](O[C@@H]3O[C@H](CO)[C@@H](O)[C@H](O)[C@H]3O)C[C@]12C [Rh1, ginsenoside Rh1]",bestriding time of mice,"male mice; 5 mg/kg, 1st day",2.8 ± 3.2 min
same,mating frequency of mice,male mice; [2],11.3 ± 4.9
same,bestriding time of mice,"male mice; 5 mg/kg, 4th day",3.5 ± 4.1 min
same,mating frequency of mice,"male mice; 5 mg/kg, 4th day",13.9 ± 3.3
same,bestriding time of mice,"male mice; 5 mg/kg, 8th day",4.1 ± 3.5 min
same,mating frequency of mice,"male mice; 5 mg/kg, 8th day",23.5 ± 5.7
same,bestriding time of mice,"male mice; 5 mg/kg, 12th day",6.2 ± 2.9 min
same,mating frequency of mice,"male mice; 5 mg/kg, 12th day",29.4 ± 4.8
same,bestriding time of mice,"male mice; 5 mg/kg, 14th day",8.6 ± 5.2 min
same,mating frequency of mice,"male mice; 5 mg/kg, 14th day",33.6 ± 6.1
same,bestriding time of mice,"male mice; 5 mg/kg, 16th day",8.7 ± 4.2* min
same,mating frequency of mice,"male mice; 5 mg/kg, 16th day",32.2 ± 5.3
same,bestriding time of mice,"male mice; 5 mg/kg, 18th day",8.9 ± 3.3* min
same,mating frequency of mice,"male mice; 5 mg/kg, 18th day",39.8 ± 9.3*
same,bestriding time of mice,"male mice; 5 mg/kg, 20th day",9.2 ± 3.4* min
same,mating frequency of mice,"male mice; 5 mg/kg, 20th day",38.1 ± 8.5*
same,bestriding time of mice,"male mice; 10 mg/kg, 1st day",3.6 ± 2.7 min
same,mating frequency of mice,male mice; [3],9.7 ± 5.6
same,bestriding time of mice,"male mice; 10 mg/kg, 4th day",3.9 ± 3.8 min
same,mating frequency of mice,"male mice; 10 mg/kg, 4th day",14.3 ± 9.5
same,bestriding time of mice,"male mice; 10 mg/kg, 8th day",4.0 ± 3.5 min
same,mating frequency of mice,"male mice; 10 mg/kg, 8th day",25.7 ± 8.6
same,bestriding time of mice,"male mice; 10 mg/kg, 12th day",6.3 ± 2.6 min
same,mating frequency of mice,"male mice; 10 mg/kg, 12th day",28.4 ± 10.5
same,bestriding time of mice,"male mice; 10 mg/kg, 14th day",8.4 ± 3.1 min
same,mating frequency of mice,"male mice; 10 mg/kg, 14th day",32.2 ± 9.3
same,bestriding time of mice,"male mice; 10 mg/kg, 16th day",8.9 ± 3.7* min
same,mating frequency of mice,"male mice; 10 mg/kg, 16th day",34.1 ± 8.2
same,bestriding time of mice,"male mice; 10 mg/kg, 18th day",9.1 ± 3.8* min
same,mating frequency of mice,"male mice; 10 mg/kg, 18th day",36.4 ± 6.7*
same,bestriding time of mice,"male mice; 10 mg/kg, 20th day",9.3 ± 3.8* min
same,mating frequency of mice,"male mice; 10 mg/kg, 20th day",43.4 ± 7.3*
same,Number of sperms,[1]; [4],142 ± 24** 10^6 · ml−1
same,Motility of sperms (A + B),[1]; 5 mg/kg every day + gossypol,39 ± 8 %
same,Viability rate of sperms,[1]; 5 mg/kg every day + gossypol,56 ± 10 %
same,Number of sperms,[1]; [5],143 ± 16** 10^6 · ml−1
same,Motility of sperms (A + B),[1]; 10 mg/kg every day + gossypol,39 ± 6 %
same,Viability rate of sperms,[1]; 10 mg/kg every day + gossypol,52 ± 5 %
"CCCc1nn(C)c2c(=O)[nH]c(-c3cc(S(=O)(=O)N4CCN(C)CC4)ccc3OCC)nc12 [Sildenafil, reference compound]",inhibition at 0.0025 µM,PDE5,71.6%
same,inhibition at 0.005 µM,PDE5,14.6%
same,inhibition at 0.01 µM,PDE5,52.6%
same,inhibition at 0.02 µM,PDE5,83.3%
same,inhibition at 0.04 µM,PDE5,100%
